PubChem BioAssay AID1918953 (Molecular Pharmacology Branch, DTP, NCI, 2023)
“And” between values parts separate entries of the source, which are not always exact repeats. Equal entries are not always repeated. Values belong to the compound of their own block, whether it stands above or below them.

System: MDA-MB-231 complex spheroid viability
Assay: Anticancer human tumor MDA-MB-231/ATCC cell line growth inhibition;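 also: drug exposure lasted 7 days starting on day 3 of spheroid growth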
Conditions: for viability, T/C: stronger effect = lower value
Summary of the method: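 Complex spheroids of tumor cells with HUVEC and human MSCs, exposed to iadademstat combined with other agents. Each agent tested in half-log steps from near clinical Cmax (else 10 microM top), DMSO ≤0.25%.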

IC50 (curve of compound): < 0.949 nM
Structure (SMILES): Nc1ccn(C2OC(CO)C(O)C2(F)F)c(=O)n1 (stereo unspecified)
viability, T/C (compound 0.000949 µM): 20.4% and 39.3% | viability, T/C (compound 0.003 µM): 17.2% and 31% | viability, T/C (compound 0.00949 µM): 15.5% and 19.9% | viability, T/C (compound 0.03 µM): 12.6% and 17.8% | viability, T/C (compound 0.0949 µM): 8.77% and 15.2% | viability, T/C (compound 0.3 µM): 5.47% and 14%

IC50 (curve of compound): > 1000 nM
Structure (SMILES): Nc1ncn(C2CC(O)C(CO)O2)c(=O)n1 (stereo unspecified)
viability, T/C (compound 0.00316 µM): 99.5% and 83.9% | viability, T/C (compound 0.01 µM): 95.3% and 91.9% | viability, T/C (compound 0.0316 µM): 83.2% and 87.7% | viability, T/C (compound 0.1 µM): 75.1% and 78.5% | viability, T/C (compound 0.316 µM): 64.4% and 69.5% | viability, T/C (compound 1 µM): 53.7% and 56.2%

Second part, the compound before the results:

Structure (SMILES): CC(C)CC(NC(=O)C(Cc1ccccc1)NC(=O)c1cnccn1)B(O)O (stereo unspecified)
viability, T/C (compound 0.000316 µM): 104% and 34.9% | viability, T/C (compound 0.00316 µM): 1.86% and 0.16% | viability, T/C (compound 0.01 µM): 0.35% and 0.17% | viability, T/C (compound 0.0316 µM): 0.31% and 0.14% | viability, T/C (compound 0.1 µM): 0.31% and 0.17% | IC50 (curve of compound): 1.09 nM and < 0.316 nM

Structure (SMILES): Cn1ncnc1C1c2n[nH]c(=O)c3cc(F)cc(c23)NC1c1ccc(F)cc1 (stereo unspecified)
viability, T/C (compound 0.000316 µM): 91% and 96.8% | viability, T/C (compound 0.001 µM): 95.8% and 101% | viability, T/C (compound 0.00316 µM): 84.4% and 94.8% | viability, T/C (compound 0.01 µM): 85.8% and 78.8% | viability, T/C (compound 0.0316 µM): 78.8% and 65.3% | viability, T/C (compound 0.1 µM): 74.7% and 72.4% | IC50 (curve of compound): > 100 nM

Structure (SMILES): COc1cc(Nc2ncc3c(n2)-c2ccc(Cl)cc2C(c2c(F)cccc2OC)=NC3)ccc1C(=O)O + NC1CCC(NC2CC2c2ccccc2)CC1
IC50 (curve of first compound, second compound 0.1 µM): 252 nM | IC50 (curve of first compound, second compound 0.316 µM): 179 nM | IC50 (curve of first compound, second compound 1 µM): 296 nM | IC50 (curve of first compound, second compound 3.16 µM): 90.1 nM | IC50 (curve of first compound, second compound 10 µM): < 3.16 nM | viability, T/C (second compound 0.1 µM, first compound 0.00316 µM): 85% | viability, T/C (second compound 0.1 µM, first compound 0.01 µM): 66.4% | viability, T/C (second compound 0.1 µM, first compound 0.0316 µM): 56% | viability, T/C (second compound 0.1 µM, first compound 0.1 µM): 58.7% | viability, T/C (second compound 0.1 µM, first compound 0.316 µM): 50% | viability, T/C (second compound 0.1 µM, first compound 1 µM): 44.3% | viability, T/C (second compound 0.316 µM, first compound 0.00316 µM): 83.1% | viability, T/C (second compound 0.316 µM, first compound 0.01 µM): 65.5% | viability, T/C (second compound 0.316 µM, first compound 0.0316 µM): 56.2% | viability, T/C (second compound 0.316 µM, first compound 0.1 µM): 54.9% | viability, T/C (second compound 0.316 µM, first compound 0.316 µM): 50.8% | viability, T/C (second compound 0.316 µM, first compound 1 µM): 42.7% | viability, T/C (second compound 1 µM, first compound 0.00316 µM): 80.4% | viability, T/C (second compound 1 µM, first compound 0.01 µM): 64.6% | viability, T/C (second compound 1 µM, first compound 0.0316 µM): 55.6% | viability, T/C (second compound 1 µM, first compound 0.1 µM): 56.2% | viability, T/C (second compound 1 µM, first compound 0.316 µM): 51.5% | viability, T/C (second compound 1 µM, first compound 1 µM): 45.6% | viability, T/C (second compound 3.16 µM, first compound 0.00316 µM): 68.4% | viability, T/C (second compound 3.16 µM, first compound 0.01 µM): 54% | viability, T/C (second compound 3.16 µM, first compound 0.0316 µM): 51.2% | viability, T/C (second compound 3.16 µM, first compound 0.1 µM): 54.5% | viability, T/C (second compound 3.16 µM, first compound 0.316 µM): 48.5% | viability, T/C (second compound 3.16 µM, first compound 1 µM): 38.2% | viability, T/C (second compound 10 µM, first compound 0.00316 µM): 49.4% | viability, T/C (second compound 10 µM, first compound 0.01 µM): 42.4% | viability, T/C (second compound 10 µM, first compound 0.0316 µM): 40.7% | viability, T/C (second compound 10 µM, first compound 0.1 µM): 38.6% | viability, T/C (second compound 10 µM, first compound 0.316 µM): 41.8% | viability, T/C (second compound 10 µM, first compound 1 µM): 37.2%

Structure (SMILES): COc1cc(C2c3cc4c(cc3C(OC3OC5COC(C)OC5C(O)C3O)C3COC(=O)C23)OCO4)cc(OC)c1O (stereo unspecified)
viability, T/C (compound 0.00949 µM): 96.1% and 79.9% | viability, T/C (compound 0.03 µM): 76.1% and 47.9% | viability, T/C (compound 0.0949 µM): 49.9% and 32.6% | viability, T/C (compound 0.3 µM): 35% and 22.9% | viability, T/C (compound 0.949 µM): 13.5% and 10.3% | viability, T/C (compound 3 µM): 6.1% and 8.34% | IC50 (curve of compound): 108 nM and 30.6 nM

Structure (SMILES): CC1COCCN1c1cc(C2(S(C)(=N)=O)CC2)nc(-c2ccnc3[nH]ccc23)n1 (stereo unspecified)
viability, T/C (compound 0.0316 µM): 105% and 111% | viability, T/C (compound 0.1 µM): 98.6% and 111% | viability, T/C (compound 0.316 µM): 79.9% and 109% | viability, T/C (compound 1 µM): 53.7% and 62% | viability, T/C (compound 3.16 µM): 36.3% and 31.3% | viability, T/C (compound 10 µM): 28.1% and 24% | IC50 (curve of compound): 1280 nM and 1530 nM
